Series [1] deals with Normolipemic rats. Briefly: Hypolipemic activity in normolipemic rats. The class given is in vivo, rat (Sprague Dawley Nos male rats). Particulars: for CHOL-HDL (in words) / serum TG (in words): oral.
Series [2] deals with Normolipemic rats. The following applies: "as known"; cited from earlier work.
The next series has as its system male mice. The series is described as follows: Anti-hypoxic activity (gasping time after decapitation). The class given is in vivo. The following applies: Mus musculus, po, pretreatment 90 min, read-out: Gasping time, % diff. from control; for change in vivo at 100 mg/kg: 100 mg/kg/p.o.
The next series in a line: in vivo. Particulars: mouse, po.
The subject of a further series is platelet aggregation. Briefly: Collagen-induced platelet aggregation ex vivo. The class given is in vivo, rat. The following applies: 0.15 mM/kg oral, blood 1 hr after treatment, collagen 2-4 mcg/ml.

The structures appear in SMILES notation.

Consider `CCOC(=O)C(C)(C)Oc1ccc(Cl)cc1` [Clofibrate, reference compound], for which, in the series with Normolipemic rats [1] (0.82 mM/kg/p.o. × 4 days), the “CHOL, % different from control” value was -15.0%; the “CHOL-HDL, % different from control” value was determined as 0%; the “Liver Weight, % different from control” value was “+19.5%”; the “TG, % different from control” value is on record as -40.0%. Further, the “liver increase (in words)” value in the series with Normolipemic rats [2] is reported as “significative liver increase”.
In the case of `Fc1ccc(C(c2ccc(F)cc2)N2CCN(C/C=C/c3ccccc3)CC2)cc1` [Flunarizine, reference compound], the change in vivo at 50 mg/kg in the series on male mice (50 mg/kg/p.o.) came out at 68.7%.
For the molecule `CSc1ccc2cc(C(O)C(C)N3CCN(C(=O)c4ccco4)CC3)ccc2c1` (centres unmarked) [MG 28451, 2-[4-(2-Furoyl)-1-piperazinyl]-1-(6-methylthio-2-naphthyl)-propanol], in the series on Normolipemic rats [1] (0.37 mM/kg/p.o. × 4 days), the “CHOL, % different from control” value is on record as -13.5%; the “CHOL-HDL, % different from control” value is reported as “+46.5%”; the “Liver Weight, % different from control” value is “+9.2%”; the “TG, % different from control” value is given as -48.2%. In addition, in the series with Normolipemic rats [1], the “CHOL-HDL (in words)” value is reported as “increase of CHOL-HDL” and the “serum TG (in words)” value is reported as “significative decrease of serum TG”. The LD50 (commonly the dose expected to kill half of the subjects tested) in the series “in vivo” is greater than 1000 mg/kg.
With `CSc1ccc2cc(C(O)C(C)N3CCN(C(=O)c4cccnc4)CC3)ccc2c1` (centres unmarked) [MG 28453, 2-[4-(3-Pyridinylcarbonyl)-1-piperazinyl]-1-(6-methylthio-2-naphthyl)-propanol], in the series on Normolipemic rats [1] (0.185 mM/kg/p.o. × 4 days), the “CHOL, % different from control” value is “+8.5%”; the “CHOL-HDL, % different from control” value is reported as “+45.2%”; the “Liver Weight, % different from control” value is “+2.8%”; the “TG, % different from control” value was -36.4%. Moreover, in the series with Normolipemic rats [1] (0.37 mM/kg/p.o. × 4 days), the “CHOL, % different from control” value is listed as -26.9%; the “CHOL-HDL, % different from control” value is given as “+31.7%”; the “Liver Weight, % different from control” value is reported as “+21.6%”; the “TG, % different from control” value is listed as -75.4%. For the same molecule, in the series with Normolipemic rats [1], the “CHOL-HDL (in words)” value is given as “increase of CHOL-HDL” and the “serum TG (in words)” value is “significative decrease of serum TG”.
As for `COc1ccc2cc(C(O)C(C)N3CCN(C(=O)C=Cc4cc(OC)c(OC)c(OC)c4)CC3)ccc2c1` (centres unmarked) [MG 28472, 2-[4-(1-Oxo-3-(3,4,5-trimethoxyphenyl)-2-propenyl)-1-piperazinyl]-1-(6-methoxy-2-naphthyl)-propanol], in the series on platelet aggregation, the “% Inhibition, Aggregation rate” value is listed as 65.3% and the “% Inhibition, Maximum aggregation” value is 75.7%.
On to `COc1ccc2cc(C(O)C(C)N3CCN(c4ccccc4)CC3)ccc2c1` (centres unmarked) [MG 38068, 2-(4-Phenyl-1-piperazinyl)-1-(6-methoxy-2-naphthyl)-propanol], for which, in the series with platelet aggregation, the “% Inhibition, Aggregation rate” value amounted to 54.4% and the “% Inhibition, Maximum aggregation” value amounted to 58.8%. Further, in the series on Normolipemic rats [1] (0.185 mM/kg/p.o. × 4 days), the “CHOL, % different from control” value is given as -3.7%; the “CHOL-HDL, % different from control” value is “+5.0%”; the “Liver Weight, % different from control” value is given as “+2.6%”; the “TG, % different from control” value was -45.0%. Also, in the series on Normolipemic rats [1] (0.37 mM/kg/p.o. × 4 days), the “CHOL, % different from control” value is -21.8%; the “CHOL-HDL, % different from control” value is on record as “+32.9%”; the “Liver Weight, % different from control” value is “+0.3%”; the “TG, % different from control” value is on record as -56.9%. In addition, in the series with Normolipemic rats [1], the “CHOL-HDL (in words)” value was “increase of CHOL-HDL” and the “serum TG (in words)” value is “significative decrease of serum TG”. The molecule also came in with an LD50 in the series “in vivo” greater than 1000 mg/kg.
Regarding `COc1ccc2cc(C(O)C(C)N3CCN(C(=O)C=Cc4ccccc4)CC3)ccc2c1` (centres unmarked) [MG 38071, 2-[4-(1-Oxo-3-phenyl-2-propenyl)-1-piperazinyl]-1-(6-methoxy-2-naphthyl)-propanol], the change in vivo at 100 mg/kg in the series on male mice is 32.7%.
On the same count and under the same terms, the same measure for `CCCCCCCCNC(C)C(O)c1ccc2cc(OC)ccc2c1` (centres unmarked) [MG 38077]: 71%.
Take `COc1ccc2cc(C(O)C(C)N3CCN(C(=O)c4ccco4)CC3)ccc2c1` (centres unmarked) [MG 38078, 2-[4-(2-Furoyl)-1-piperazinyl]-1-(6-methoxy-2-naphthyl)-propanol]: in the series on platelet aggregation, the “% Inhibition, Aggregation rate” value worked out at 64.0% and the “% Inhibition, Maximum aggregation” value came out at 70.4%. The LD50 in “in vivo” was greater than 2000 mg/kg.
Take `COc1ccc2cc(C(O)C(C)N3CCN(c4ccccc4OC)CC3)ccc2c1` (stereo not drawn) [MG 38098, threo-2-[4-(2-Methoxyphenyl)-1-piperazinyl]-1-(6-methoxy-2-naphthyl)-propanol]: the change in vivo at 100 mg/kg in the series on male mice came to 41.1%.

The values above are taken from patent publication US4902799A, “Bicyclic alkoxy- and alkylthio-substituted aminoalcohols” (Maggioni-Winthrop S.p.A., priority 1985, dated 1990).
